# Activity calls are given as the source filed them. On the calls: in the data inactive means no Kd found up to 30 µM.
# Legend:
# [1] = target: Serine/threonine-protein kinase MRCK alpha (Homo sapiens, UniProt Q5VT25)
# dCTP pyrophosphatase 1 = target: T1, dCTP pyrophosphatase 1 (Homo sapiens, UniProt Q9H773)
# T1 sequence (Q9H773 whole entry): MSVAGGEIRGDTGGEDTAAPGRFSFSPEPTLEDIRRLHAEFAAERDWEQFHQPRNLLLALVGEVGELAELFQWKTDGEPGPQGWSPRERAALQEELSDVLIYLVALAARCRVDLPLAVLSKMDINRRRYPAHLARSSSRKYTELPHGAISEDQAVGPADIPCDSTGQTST
# [2] = target: T2, RNA cytidine acetyltransferase (Homo sapiens, UniProt Q9H0A0)
# T2 sequence (Q9H0A0 whole entry): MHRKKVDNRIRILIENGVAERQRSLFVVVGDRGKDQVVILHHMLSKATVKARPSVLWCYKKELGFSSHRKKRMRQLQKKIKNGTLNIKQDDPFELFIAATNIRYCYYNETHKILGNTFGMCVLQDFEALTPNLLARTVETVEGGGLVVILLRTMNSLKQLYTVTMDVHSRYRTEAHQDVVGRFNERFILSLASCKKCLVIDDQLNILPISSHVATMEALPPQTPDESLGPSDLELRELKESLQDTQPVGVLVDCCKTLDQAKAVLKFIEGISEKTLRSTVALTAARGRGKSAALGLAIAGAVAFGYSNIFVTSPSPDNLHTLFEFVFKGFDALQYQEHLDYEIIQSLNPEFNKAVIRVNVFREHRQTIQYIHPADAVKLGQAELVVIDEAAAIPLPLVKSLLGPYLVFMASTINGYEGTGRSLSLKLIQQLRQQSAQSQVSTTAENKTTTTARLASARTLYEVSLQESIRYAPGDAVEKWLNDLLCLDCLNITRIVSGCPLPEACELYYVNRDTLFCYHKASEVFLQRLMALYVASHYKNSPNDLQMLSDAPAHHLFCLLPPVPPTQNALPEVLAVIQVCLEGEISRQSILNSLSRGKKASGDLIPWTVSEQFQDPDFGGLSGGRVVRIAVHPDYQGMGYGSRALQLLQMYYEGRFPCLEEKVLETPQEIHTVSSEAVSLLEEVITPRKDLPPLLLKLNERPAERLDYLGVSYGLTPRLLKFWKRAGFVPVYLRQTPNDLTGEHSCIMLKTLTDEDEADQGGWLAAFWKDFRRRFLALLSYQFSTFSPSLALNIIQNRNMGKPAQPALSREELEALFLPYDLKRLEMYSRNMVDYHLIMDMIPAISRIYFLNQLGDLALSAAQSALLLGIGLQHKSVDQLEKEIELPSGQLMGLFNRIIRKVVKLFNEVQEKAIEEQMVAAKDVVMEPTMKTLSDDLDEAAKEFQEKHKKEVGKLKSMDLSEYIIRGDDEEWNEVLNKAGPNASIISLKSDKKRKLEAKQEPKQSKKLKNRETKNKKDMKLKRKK
# [3] = target: Mitogen-activated protein kinase 1 (Homo sapiens, UniProt P28482)
# [4] = target: T3, Very long-chain specific acyl-CoA dehydrogenase, mitochondrial (Homo sapiens, UniProt P49748)
# T3 sequence (P49748 whole entry): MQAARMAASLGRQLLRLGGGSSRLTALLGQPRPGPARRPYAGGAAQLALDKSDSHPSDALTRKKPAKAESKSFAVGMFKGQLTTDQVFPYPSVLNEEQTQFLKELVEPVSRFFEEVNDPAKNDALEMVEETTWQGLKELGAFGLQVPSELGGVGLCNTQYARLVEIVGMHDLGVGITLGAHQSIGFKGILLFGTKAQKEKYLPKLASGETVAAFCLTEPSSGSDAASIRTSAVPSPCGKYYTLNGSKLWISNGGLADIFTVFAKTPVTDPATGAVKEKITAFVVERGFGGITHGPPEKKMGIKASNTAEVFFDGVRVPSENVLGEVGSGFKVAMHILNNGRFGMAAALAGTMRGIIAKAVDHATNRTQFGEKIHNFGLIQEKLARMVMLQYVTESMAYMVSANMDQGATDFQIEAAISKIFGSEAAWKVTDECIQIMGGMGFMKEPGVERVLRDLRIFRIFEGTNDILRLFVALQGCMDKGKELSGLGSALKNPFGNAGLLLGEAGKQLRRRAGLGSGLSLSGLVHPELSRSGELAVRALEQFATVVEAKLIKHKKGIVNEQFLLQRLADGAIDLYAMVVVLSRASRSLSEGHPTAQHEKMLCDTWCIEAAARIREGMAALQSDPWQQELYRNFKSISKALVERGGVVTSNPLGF
# [5] = target: Serine/threonine-protein kinase PAK 2 (Homo sapiens, UniProt Q13177)
# [6] = target: T4, Bifunctional phosphoribosylaminoimidazole carboxylase/phosphoribosylaminoimidazole succinocarboxamide synthetase (Homo sapiens, UniProt P22234)
# T4 sequence (P22234 whole entry): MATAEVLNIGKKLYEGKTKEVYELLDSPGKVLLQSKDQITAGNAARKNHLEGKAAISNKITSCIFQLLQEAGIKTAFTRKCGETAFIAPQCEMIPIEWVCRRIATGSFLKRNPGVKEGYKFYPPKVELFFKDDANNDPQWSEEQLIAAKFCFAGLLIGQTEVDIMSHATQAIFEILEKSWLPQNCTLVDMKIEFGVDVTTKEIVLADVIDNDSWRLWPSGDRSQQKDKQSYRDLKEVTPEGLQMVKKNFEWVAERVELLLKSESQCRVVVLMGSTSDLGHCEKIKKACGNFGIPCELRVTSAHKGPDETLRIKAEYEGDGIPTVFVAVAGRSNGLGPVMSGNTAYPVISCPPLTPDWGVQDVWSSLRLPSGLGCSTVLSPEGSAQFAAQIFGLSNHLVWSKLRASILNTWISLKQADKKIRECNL
# [7] = target: T5, Membrane-associated tyrosine- and threonine-specific cdc2-inhibitory kinase (Homo sapiens, UniProt Q99640)
# T5 sequence (Q99640 whole entry): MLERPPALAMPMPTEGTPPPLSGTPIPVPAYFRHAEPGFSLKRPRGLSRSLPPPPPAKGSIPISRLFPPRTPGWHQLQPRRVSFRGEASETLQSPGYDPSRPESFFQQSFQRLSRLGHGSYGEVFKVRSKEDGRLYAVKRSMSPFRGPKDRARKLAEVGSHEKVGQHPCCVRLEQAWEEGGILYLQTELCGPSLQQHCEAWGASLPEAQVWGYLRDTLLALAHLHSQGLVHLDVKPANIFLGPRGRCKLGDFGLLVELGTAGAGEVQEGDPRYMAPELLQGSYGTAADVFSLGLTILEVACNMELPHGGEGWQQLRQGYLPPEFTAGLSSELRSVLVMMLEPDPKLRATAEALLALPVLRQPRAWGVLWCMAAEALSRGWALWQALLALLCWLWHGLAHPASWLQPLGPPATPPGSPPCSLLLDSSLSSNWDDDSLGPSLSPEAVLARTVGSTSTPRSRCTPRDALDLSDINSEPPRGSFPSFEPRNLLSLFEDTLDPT
# Chain of Mitogen-activated protein kinase 1 (P28482 whole entry): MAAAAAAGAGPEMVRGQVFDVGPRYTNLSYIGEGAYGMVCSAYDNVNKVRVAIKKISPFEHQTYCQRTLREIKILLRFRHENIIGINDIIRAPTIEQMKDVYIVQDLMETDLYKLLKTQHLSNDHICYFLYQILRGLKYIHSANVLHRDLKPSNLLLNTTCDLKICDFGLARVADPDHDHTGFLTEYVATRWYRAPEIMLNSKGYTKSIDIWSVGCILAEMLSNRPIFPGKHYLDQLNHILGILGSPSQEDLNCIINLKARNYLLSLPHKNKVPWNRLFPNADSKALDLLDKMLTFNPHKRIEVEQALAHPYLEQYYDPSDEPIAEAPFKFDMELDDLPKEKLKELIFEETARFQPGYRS
# Chain of Serine/threonine-protein kinase MRCK alpha (Q5VT25 whole entry): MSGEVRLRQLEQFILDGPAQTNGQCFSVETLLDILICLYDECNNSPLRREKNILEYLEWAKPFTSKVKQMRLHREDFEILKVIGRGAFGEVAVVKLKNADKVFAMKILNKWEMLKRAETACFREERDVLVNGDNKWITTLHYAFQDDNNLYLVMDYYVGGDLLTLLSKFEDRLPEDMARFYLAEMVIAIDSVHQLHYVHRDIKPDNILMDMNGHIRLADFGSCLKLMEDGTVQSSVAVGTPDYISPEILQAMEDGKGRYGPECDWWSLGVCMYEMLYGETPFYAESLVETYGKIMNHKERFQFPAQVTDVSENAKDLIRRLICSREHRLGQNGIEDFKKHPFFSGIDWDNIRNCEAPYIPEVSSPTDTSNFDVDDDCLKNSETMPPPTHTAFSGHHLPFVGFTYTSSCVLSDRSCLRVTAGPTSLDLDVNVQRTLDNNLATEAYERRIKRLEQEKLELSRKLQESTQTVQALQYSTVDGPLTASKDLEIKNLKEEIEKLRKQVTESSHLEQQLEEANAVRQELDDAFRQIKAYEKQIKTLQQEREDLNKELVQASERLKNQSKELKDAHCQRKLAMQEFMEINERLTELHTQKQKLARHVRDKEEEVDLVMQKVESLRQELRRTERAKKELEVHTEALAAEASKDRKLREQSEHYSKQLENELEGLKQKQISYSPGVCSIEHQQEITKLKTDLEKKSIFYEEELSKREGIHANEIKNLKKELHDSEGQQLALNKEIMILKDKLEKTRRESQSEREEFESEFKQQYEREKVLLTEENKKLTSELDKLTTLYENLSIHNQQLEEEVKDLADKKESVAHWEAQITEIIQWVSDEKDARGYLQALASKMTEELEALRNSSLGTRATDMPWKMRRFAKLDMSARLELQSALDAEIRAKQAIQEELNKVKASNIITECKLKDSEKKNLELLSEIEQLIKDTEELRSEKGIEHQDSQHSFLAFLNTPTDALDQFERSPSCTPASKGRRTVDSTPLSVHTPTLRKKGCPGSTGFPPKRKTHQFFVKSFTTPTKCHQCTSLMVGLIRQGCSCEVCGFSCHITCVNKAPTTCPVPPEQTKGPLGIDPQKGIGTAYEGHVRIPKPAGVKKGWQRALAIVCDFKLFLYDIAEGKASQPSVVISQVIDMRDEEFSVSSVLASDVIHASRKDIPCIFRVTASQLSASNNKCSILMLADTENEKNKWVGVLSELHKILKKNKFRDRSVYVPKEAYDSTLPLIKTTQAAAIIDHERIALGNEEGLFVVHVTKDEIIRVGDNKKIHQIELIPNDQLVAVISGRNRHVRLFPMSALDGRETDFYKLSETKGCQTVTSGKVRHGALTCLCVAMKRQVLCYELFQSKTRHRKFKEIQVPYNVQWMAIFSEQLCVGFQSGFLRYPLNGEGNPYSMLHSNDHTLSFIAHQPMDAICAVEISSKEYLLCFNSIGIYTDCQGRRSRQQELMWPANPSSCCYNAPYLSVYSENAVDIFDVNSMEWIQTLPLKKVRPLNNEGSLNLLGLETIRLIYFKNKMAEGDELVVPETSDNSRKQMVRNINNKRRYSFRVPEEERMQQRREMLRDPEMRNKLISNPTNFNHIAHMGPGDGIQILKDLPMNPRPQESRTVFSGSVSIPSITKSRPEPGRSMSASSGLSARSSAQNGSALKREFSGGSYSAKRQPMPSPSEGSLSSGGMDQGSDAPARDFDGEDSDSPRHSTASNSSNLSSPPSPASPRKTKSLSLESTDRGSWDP
# Chain of Serine/threonine-protein kinase PAK 2 (Q13177 whole entry): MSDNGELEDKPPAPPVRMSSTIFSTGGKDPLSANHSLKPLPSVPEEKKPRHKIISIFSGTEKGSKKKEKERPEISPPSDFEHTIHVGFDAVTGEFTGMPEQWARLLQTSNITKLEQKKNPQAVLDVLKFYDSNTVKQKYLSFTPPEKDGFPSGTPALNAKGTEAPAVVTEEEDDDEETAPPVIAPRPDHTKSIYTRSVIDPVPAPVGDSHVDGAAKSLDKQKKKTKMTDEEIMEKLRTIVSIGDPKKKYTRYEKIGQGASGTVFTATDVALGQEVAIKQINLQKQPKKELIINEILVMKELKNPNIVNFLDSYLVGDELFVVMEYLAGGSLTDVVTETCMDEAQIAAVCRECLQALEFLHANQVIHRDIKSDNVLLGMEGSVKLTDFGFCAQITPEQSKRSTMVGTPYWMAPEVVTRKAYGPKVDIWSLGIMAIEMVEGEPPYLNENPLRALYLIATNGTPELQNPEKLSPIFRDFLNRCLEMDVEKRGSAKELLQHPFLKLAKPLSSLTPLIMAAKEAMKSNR
Kd [1],Kd (dCTP pyrophosphatase 1),Kd [2],Kd [3],Kd [4],Kd [5],Kd [6],Kd [7],SMILES
> 30 µM (inactive),> 30 µM (inactive),> 30 µM (inactive),> 30 µM (inactive),> 30 µM (inactive),> 30 µM (inactive),> 30 µM (inactive),> 30 µM (inactive),Cn1ncc(Cl)c1-c1cc(C(=O)N[C@H](CN)Cc2ccc(F)c(F)c2)oc1Cl [UPROSERTIB]
> 30 µM (inactive),> 30 µM (inactive),> 30 µM (inactive),> 30 µM (inactive),> 30 µM (inactive),> 30 µM (inactive),> 30 µM (inactive),> 30 µM (inactive),CC(C)c1cc(CNc2nc(Nc3cc(C4CC4)[nH]n3)cc(N3CCN(C)CC3)n2)on1 [XL-228]
> 30 µM (inactive),> 30 µM (inactive),> 30 µM (inactive),> 30 µM (inactive),> 30 µM (inactive),> 30 µM (inactive),> 30 µM (inactive),> 30 µM (inactive),C[C@@H](N)c1ccc(C(=O)Nc2ccnc3[nH]ccc23)cc1 [Y-39983]
> 30 µM (inactive),> 30 µM (inactive),> 30 µM (inactive),> 30 µM (inactive),> 30 µM (inactive),> 30 µM (inactive),> 30 µM (inactive),> 30 µM (inactive),CN1C/C=C/CCOc2cccc(c2)-c2ccnc(n2)Nc2cccc(c2)C1 [ZOTIRACICLIB]

# Source: ChEMBL document CHEMBL3991601, “The target landscape of clinical kinase drugs” (Science, 2017)
